Where two headings read alike, the source gives them in different places.

Series [1] deals with HepG2 cells. Put plainly: Cell cycle by flow cytometry (PI). In kind it is cell-based. The conditions noted are these: 5 μg/mL tanshinone IIA equivalent, 24 h, control 28.98%. The protocol:
The test method was performed according to the method provided with the apoptosis test until two centrifugations were completed, and the supernatant was discarded. Next, 1 mL of ice bath precooled 70% ethanol was added to fix the cells for 24 h at 4°C, then, the fixed cells were centrifuged at 1000×g for 5 min ([36]). After resuspending the cells, the cells were centrifuged and precipitated again, and the supernatant was discarded. A total of 500 μL PI staining solution was added to the cells, and the cells were slowly and sufficiently resuspended and bathed for 30 min in the dark at 37°C. Flow cytometry was completed within 24 h after staining ([37]).

The test system of another series is A2780 cells. As to the kind of experiment: CCK8 cell viability assay. The conditions noted are these: Homo sapiens, 24 h, equivalent tanshinone IIA dose. In kind it is cell-based. The protocol: (§1) A2780, HCT8, HepG2, and Huh7 cells were seeded in 96-well plates at a density of 4 × 10^4 cells per well for 24 h ([32]) and treated with complete medium containing a series of blank niosomes (NSVs, Gal-NSVs, pH-NSVs, Gal-pH-NSVs) for 24 h. Subsequently, the culture medium was discarded, and CCK8 solution was added to the cells. Then, cells were continuously cultured for 2 h at 37°C. The absorbance value of each well was measured at 450 nm by a microplate spectrophotometer (BIO-RAD xMark, USA). The control group and blank group were included in the experiment. […] Cell viability was calculated according to the following formula ([33]): Cell viability%=Atest−Ao/Acontrast−Ao×100%
(§2) In the formula, Atest is the absorbance value of the test group, Acontrast is the absorbance value of the control group, and A0 is the absorbance value of the blank group.
(§3) A2780, HCT8, HepG2, and Huh7 cells were seeded in 96-well plates for 24 h and treated with serial concentrations of tanshinone IIA solution (Free TanIIA) and tanshinone IIA-loaded niosomes (TanIIA-NSVs, Gal-TanIIA-NSVs, pH-TanIIA-NSVs, Gal-pH-TanIIA-NSVs) at an equivalent tanshinone IIA dose for 24 h. Then, the culture medium was discarded, CCK8 solution was added to the cells, and cells were continuously cultured for 2 h at 37°C. The absorbance value of each well was measured at 450 nm by a microplate spectrophotometer ([33]).

In another series the test system is HCT8 cells. As to the kind of experiment: CCK8 cell viability assay. In kind it is cell-based. The settings on record: Homo sapiens, HCT-8, 24 h, equivalent tanshinone IIA dose. The protocol: as §1, §2, §3
The subject of another series is Huh7 cells. As to the kind of experiment: CCK8 cell viability assay. In kind it is cell-based. The settings on record: Homo sapiens, Huh-7, 24 h, equivalent tanshinone IIA dose. On the procedure: as §1, §2, §3
Series [2] concerns HepG2 cells. Put plainly: CCK8 cell viability assay. In kind it is cell-based. The conditions noted are these: Homo sapiens, 24 h, equivalent tanshinone IIA dose. On the procedure:
as §1, §2, §3

A short description of series [3]: Biodistribution after tail vein injection. It counts as in vivo. The settings on record: SD rats, 10 mg/kg, all time periods tested (0.083, 4, 12 h). The protocol: Twenty-seven male SD rats were randomly divided into three groups and administered in the same way. Rats were sacrificed after 0.083, 4, and 12 h, respectively, and heart, liver, spleen, lung, and kidney tissues were collected immediately. Any residual blood on the tissue was washed with precooled normal saline, and the washed tissue was blotted up with filter paper and weighed. The tissue was then homogenized in 5 times the mass of precooled normal saline. Homogenized tissue samples were centrifuged at 9391.2×g for 5 min to separate the tissue homogenate and were stored at −20°C ([39]). After treatment of plasma and tissue homogenate, the obtained supernatant was concentrated by nitrogen blowing and determined by HPLC.

For series [4], the system named is HepG2 cells. As to the kind of experiment: Cell apoptosis by flow cytometry (Annexin V-FITC/PI). It counts as cell-based. The settings on record: 5 μg/mL tanshinone IIA equivalent, 24 h, control 57.33%. On the procedure: HepG2 cells were seeded in 6-well plates at a density of 2 × 10^5 cells per well for 24 h and treated with tanshinone IIA solution (Free TanIIA) and tanshinone IIA-loaded niosomes (TanIIA-NSVs, Gal-pH-TanIIA-NSVs) at an equivalent tanshinone IIA dose of 5 μg/mL for 24 h. Another group was treated with PBS for the same duration as the control group. After incubation, the cell culture medium was transferred to a 2-mL centrifuge tube, and cells digested by a trypsin-EDTA solution were added to the cell culture medium collected previously. Subsequently, the cells were mixed, transferred to a centrifuge tube, and centrifuged at 1000×g for 5 min ([34]). The supernatant was discarded, and the cells were gently resuspended with PBS and counted. A certain amount of resuspended cells were centrifuged in a similar fashion, the supernatant was discarded (PBS was removed), and 500 μL of binding buffer was added. Then, the cells were gently resuspended, and 5 μL Annexin V-FITC was added. After mixing, 5 μL propidium iodide (PI) staining solution was added to the cells, gently mixed, and incubated for 10 min in the dark at room temperature (20–25°C). Flow cytometry was then performed ([35]).

Details of series [5]: method as in PMID 28680091. The conditions noted are these: cited from earlier work.
On the set-up of series [6]: method as in PMID 28680091. The conditions noted are these: cited from earlier work. This is another data set of the same source.
A short description of series [7]: Pharmacokinetics after tail vein injection. In kind it is in vivo. The settings on record: SD rats. The protocol:
Twelve male SD rats (weighing 200–250 g) were randomly divided into three groups. Rats were fasted for 12 h but drank water freely before administration ([38]). The first, second, and third groups were injected with Free TanIIA, TanIIA-NSVs, and Gal-pH-TanIIA-NSVs at an equivalent tanshinone IIA dose of 10 mg/kg via tail vein, respectively. Orbital blood was taken at 0.083, 0.25, 0.5, 1, 2, 4, 6, 8, 12, and 24 h after administration. Blood was transferred to a centrifuge tube coated with heparin sodium and centrifuged at 9391.2×g for 5 min to prepare plasma that was stored at −20°C ([39]).
After treatment of plasma and tissue homogenate, the obtained supernatant was concentrated by nitrogen blowing and determined by HPLC.

The mark [8] stands for this setting: 10 mg/kg tanshinone IIA equivalent, tail vein.

On to `Cc1coc2c1C(=O)C(=O)c1c-2ccc2c1CCCC2(C)C` [Free TanIIA, Tanshinone IIA], for which the S phase distribution with HepG2 cells [1] amounted to 50.53%. In addition, the half-inhibitory concentration (IC50) in the series on A2780 cells was found to be 2.44 µg/mL; in the series with HCT8 cells, 2.42 µg/mL; in the series on Huh7 cells, 2.5 µg/mL; with HepG2 cells [2], 2.26 µg/mL. In [3], the “Drug level in kidney tissue” value is reported as “relatively high drug levels”. Moreover, the “Apoptotic rate (early + late apoptosis)” value in the series with HepG2 cells [4] came to 78.34%. For the same compound, the Solubility in water entry in series [5] is recorded as “insolubility in water”. Besides, the half-life result in series [6] was “short half-life”; in [7] (male, rat, plasma, iv, 10 mg/kg tanshinone IIA equivalent, tail vein), 3.09 ± 0.59 h. The “Plasma concentration by HPLC” value in series [7] (12 h after injection, 10 mg/kg) is “could not be detected”. The “AUC0–t” value in series [7] (setting [8]) was 7.70 ± 1.51 (μg/mL)·h. Moreover, in series [7] (setting [8]), the “AUC0–∞” value is 8.81 ± 1.65 (μg/mL)·h. Also, the CL in [7] (setting [8]) is on record as 0.284 ± 0.026 (mg)/(μg/mL)/h. Further, the Vd in series [7] (setting [8]) is 1.26 ± 0.09 (mg)/(μg/mL). For the same compound, the MRT last in series [7] (male, rat, plasma, iv, 10 mg/kg tanshinone IIA equivalent, tail vein, read-out: MRT0–t) stood at 2.23 ± 0.2 h. Besides, the MRT inf in series [7] (male, rat, plasma, iv, 10 mg/kg tanshinone IIA equivalent, tail vein, read-out: MRT0–∞) was 3.53 ± 0.63 h.
